# Values of other authors, collected in patent publication US20220288013A1, “1,8-CINEOL COATED IMPLANTS” (THE BOARD OF TRUSTEES OF THE LELAND STANFORD JUNIOR …, priority 2019, published 2022).
# Columns and labels:
# [1] = test system: head and neck squamous cell carcinoma (HNSCC) cell lines; conditions: exposure of different cell lines; permanent HNSCC cell lines
# [2] = test system: Wnt11; conditions: HNSCC cell lines
# [3] = test system: WNT/β-catenin pathway; conditions: permanent HNSCC cell lines
structure (smiles),measurement,setting,value
"CC12CCC(CC1)C(C)(C)O2 [1,8-cineol, 1,3,3-Trimethyl-2-oxabicyclo[2.2.2]octane]",proliferation,[1],inhibit proliferation
same,expression of Wnt11,[2],reduces expression of Wnt11
same,"activity of the WNT/β-catenin pathway (canonical pathway), especially of Wnt11",[3],decrease the activity of the WNT/β-catenin pathway
